Read-outs that look alike come from different tables or passages of the source.
Key:
[1] = system: glutamate-induced 45Ca2+ uptake into synaptosomes of rat brain cortex; experiment: Effect on glutamate-induced 45Ca2+ uptake into synaptosomes of rat brain cortex; format: biochemical, Wistar rats; conditions: for Percentage 45Ca2+ of Control (Control – 100%): 200 μM glutamate, 5 min, 37 °C; for overall inhibiting activity on calcium ion uptake, in words: whole concentration range 0.01–100 μM
[2] = format: physicochemical

CN1CCc2c(c3ccccc3n2CCc2n[nH]c(=S)n2C)C1 [Compound I, 4-Methyl-5-[2-(2-methyl-1,2,3,4-tetrahydropyrido[4,3-b]indol-5-yl)ethyl]-2,4-dihydro[1,2,4]triazole-3-thione]
Percentage 45Ca2+ of Control (Control – 100%) ([1]; compound 0.1 μM): 90.5 ± 5.1%
Percentage 45Ca2+ of Control (Control – 100%) ([1]; compound 0.5 μM): 94.8 ± 3.0%
Percentage 45Ca2+ of Control (Control – 100%) ([1]; compound 1 μM): 94.5 ± 11.8%
Percentage 45Ca2+ of Control (Control – 100%) ([1]; compound 5 μM): 80.0 ± 3.0%
Percentage 45Ca2+ of Control (Control – 100%) ([1]; compound 10 μM): 69.9 ± 4.4%
Percentage 45Ca2+ of Control (Control – 100%) ([1]; compound 50 μM): 90.0 ± 6.1%
Percentage 45Ca2+ of Control (Control – 100%) ([1]; compound 100 μM): 104.2 ± 12.8%
effect on glutamate-induced calcium ion uptake, in words ([1]; concentration of 0.1–1 μM): did not affect
effect on glutamate-induced calcium ion uptake, in words ([1]; concentrations of 5–50 μM): inhibited calcium ion uptake
mole fraction solubility (x) ([2]; 1-octanol, 293.15 K): 2.16 x · 10^4
A, parameter of the correlation equation lnx=A-B/T ([2]; 1-octanol, 293.15–313.15 K): 5.83 ± 0.11
B, parameter of the correlation equation lnx=A-B/T ([2]; 1-octanol, 293.15–313.15 K): 4179 ± 45
mole fraction solubility (x) ([2]; 1-octanol, 298.15 K): 2.74 x · 10^4
ΔGsol0, standard molar dissolution Gibbs energy ([2]; 1-octanol, 298.15 K): 4.85 kcal/mol
ΔHsol0, standard molar dissolution enthalpy ([2]; 1-octanol, 298.15 K): 8.29 kcal/mol
ΔSsol0, standard molar dissolution entropy ([2]; 1-octanol, 298.15 K): 69.9 J/mol⋅K
mole fraction solubility (x) ([2]; 1-octanol, 303.15 K): 3.48 x · 10^4
mole fraction solubility (x) ([2]; 1-octanol, 308.15 K): 4.28 x · 10^4
mole fraction solubility (x) ([2]; 1-octanol, 313.15 K): 5.40 x · 10^4
mole fraction solubility (x) ([2]; Buffer pH 7.4, 293.15 K): 1.69 x · 10^6
A, parameter of the correlation equation lnx=A-B/T ([2]; Buffer pH 7.4, 293.15–313.15 K): −7.76 ± 0.04
B, parameter of the correlation equation lnx=A-B/T ([2]; Buffer pH 7.4, 293.15–313.15 K): 1649 ± 12
mole fraction solubility (x) ([2]; Buffer pH 7.4, 298.15 K): 1.86 x · 10^6
ΔGsol0, standard molar dissolution Gibbs energy ([2]; Buffer pH 7.4, 298.15 K): 7.82 kcal/mol
ΔHsol0, standard molar dissolution enthalpy ([2]; Buffer pH 7.4, 298.15 K): 3.27 kcal/mol
ΔSsol0, standard molar dissolution entropy ([2]; Buffer pH 7.4, 298.15 K): -63.73 J/mol⋅K
mole fraction solubility (x) ([2]; Buffer pH 7.4, 303.15 K): 2.04 x · 10^6
mole fraction solubility (x) ([2]; Buffer pH 7.4, 308.15 K): 2.23 x · 10^6
mole fraction solubility (x) ([2]; Buffer pH 7.4, 313.15 K): 2.42 x · 10^6
mole fraction solubility (x) ([2]; Hexane, 293.15 K): 7.96 x · 10^6
A, parameter of the correlation equation lnx=A-B/T ([2]; Hexane, 293.15–313.15 K): −1.25 ± 0.18
B, parameter of the correlation equation lnx=A-B/T ([2]; Hexane, 293.15–313.15 K): 3073 ± 39
mole fraction solubility (x) ([2]; Hexane, 298.15 K): 9.41 x · 10^6
ΔGsol0, standard molar dissolution Gibbs energy ([2]; Hexane, 298.15 K): 6.84 kcal/mol
ΔHsol0, standard molar dissolution enthalpy ([2]; Hexane, 298.15 K): 6.12 kcal/mol
ΔSsol0, standard molar dissolution entropy ([2]; Hexane, 298.15 K): -6.7 J/mol⋅K
mole fraction solubility (x) ([2]; Hexane, 303.15 K): 11.41 x · 10^6
mole fraction solubility (x) ([2]; Hexane, 308.15 K): 13.26 x · 10^6
mole fraction solubility (x) ([2]; Hexane, 313.15 K): 15.50 x · 10^6
increase of solubility in hexane over buffer solution ([2]; standard temperature): 5 times

Cc1ccc2c(c1)c1c(n2CCc2n[nH]c(=S)n2C)CCN(C)C1 [Compound II, 5-[2-(2,8-Dimethyl-1,2,3,4-tetrahydropyrido[4,3-b]indol-5-yl)ethyl]-4-methyl-2,4-dihydro [1,2,4] triazole-3-thione]
Percentage 45Ca2+ of Control (Control – 100%) ([1]; compound 0.01 μM): 84.7 ± 1.2%
Percentage 45Ca2+ of Control (Control – 100%) ([1]; compound 0.1 μM): 85.5 ± 3.9%
Percentage 45Ca2+ of Control (Control – 100%) ([1]; compound 0.5 μM): 102.6 ± 3.6%
Percentage 45Ca2+ of Control (Control – 100%) ([1]; compound 1 μM): 93.6 ± 3.6%
Percentage 45Ca2+ of Control (Control – 100%) ([1]; compound 5 μM): 113.1 ± 7.6%
Percentage 45Ca2+ of Control (Control – 100%) ([1]; compound 10 μM): 109.7 ± 7.5%
Percentage 45Ca2+ of Control (Control – 100%) ([1]; compound 50 μM): 118.6 ± 2.7%
Percentage 45Ca2+ of Control (Control – 100%) ([1]; compound 100 μM): 127.1 ± 17.1%
inhibition of glutamate-induced uptake of calcium ions ([1]; concentration of 0.01–0.1 μM): ~15%
overall inhibiting activity on calcium ion uptake, in words [1]: potentiates the uptake at high concentrations
mole fraction solubility (x) ([2]; 1-octanol, 293.15 K): 0.89 x · 10^4
A, parameter of the correlation equation lnx=A-B/T ([2]; 1-octanol, 293.15–313.15 K): 3.95 ± 0.23
B, parameter of the correlation equation lnx=A-B/T ([2]; 1-octanol, 293.15–313.15 K): 3889 ± 69
mole fraction solubility (x) ([2]; 1-octanol, 298.15 K): 1.13 x · 10^4
ΔGsol0, standard molar dissolution Gibbs energy ([2]; 1-octanol, 298.15 K): 5.38 kcal/mol
ΔHsol0, standard molar dissolution enthalpy ([2]; 1-octanol, 298.15 K): 7.72 kcal/mol
ΔSsol0, standard molar dissolution entropy ([2]; 1-octanol, 298.15 K): 32.9 J/mol⋅K
mole fraction solubility (x) ([2]; 1-octanol, 303.15 K): 1.39 x · 10^4
mole fraction solubility (x) ([2]; 1-octanol, 308.15 K): 1.68 x · 10^4
mole fraction solubility (x) ([2]; 1-octanol, 313.15 K): 2.11 x · 10^4
mole fraction solubility (x) ([2]; Buffer pH 7.4, 293.15 K): 1.64 x · 10^6
A, parameter of the correlation equation lnx=A-B/T ([2]; Buffer pH 7.4, 293.15–313.15 K): −2.90 ± 0.22
B, parameter of the correlation equation lnx=A-B/T ([2]; Buffer pH 7.4, 293.15–313.15 K): 3054 ± 67
mole fraction solubility (x) ([2]; Buffer pH 7.4, 298.15 K): 1.96 x · 10^6
ΔGsol0, standard molar dissolution Gibbs energy ([2]; Buffer pH 7.4, 298.15 K): 7.79 kcal/mol
ΔHsol0, standard molar dissolution enthalpy ([2]; Buffer pH 7.4, 298.15 K): 6.07 kcal/mol
ΔSsol0, standard molar dissolution entropy ([2]; Buffer pH 7.4, 298.15 K): -24.2 J/mol⋅K
mole fraction solubility (x) ([2]; Buffer pH 7.4, 303.15 K): 2.27 x · 10^6
mole fraction solubility (x) ([2]; Buffer pH 7.4, 308.15 K): 2.70 x · 10^6
mole fraction solubility (x) ([2]; Buffer pH 7.4, 313.15 K): 3.21 x · 10^6
mole fraction solubility (x) ([2]; Hexane, 293.15 K): 1.42 x · 10^5
A, parameter of the correlation equation lnx=A-B/T ([2]; Hexane, 293.15–313.15 K): −1.39 ± 0.17
B, parameter of the correlation equation lnx=A-B/T ([2]; Hexane, 293.15–313.15 K): 2989 ± 49
mole fraction solubility (x) ([2]; Hexane, 298.15 K): 1.70 x · 10^5
ΔGsol0, standard molar dissolution Gibbs energy ([2]; Hexane, 298.15 K): 6.5 kcal/mol
ΔHsol0, standard molar dissolution enthalpy ([2]; Hexane, 298.15 K): 5.95 kcal/mol
ΔSsol0, standard molar dissolution entropy ([2]; Hexane, 298.15 K): -7.7 J/mol⋅K
mole fraction solubility (x) ([2]; Hexane, 303.15 K): 2.02 x · 10^5
mole fraction solubility (x) ([2]; Hexane, 308.15 K): 2.35 x · 10^5
mole fraction solubility (x) ([2]; Hexane, 313.15 K): 2.72 x · 10^5

CN1CCc2c(c3cc(F)ccc3n2CCc2n[nH]c(=S)n2C)C1 [Compound IV, 5-[2-(8-Fluoro-2-methyl-1,2,3,4-tetrahydropyrido[4,3-b]indol-5-yl)ethyl]-4-methyl-2,4-dihydro[1,2,4]triazole-3-thione]
Percentage 45Ca2+ of Control (Control – 100%) ([1]; compound 0.01 μM): 102.0 ± 9.8%
Percentage 45Ca2+ of Control (Control – 100%) ([1]; compound 0.1 μM): 78.7 ± 10.3%
Percentage 45Ca2+ of Control (Control – 100%) ([1]; compound 0.5 μM): 78.7 ± 8.0%
Percentage 45Ca2+ of Control (Control – 100%) ([1]; compound 1 μM): 83.2 ± 10.9%
Percentage 45Ca2+ of Control (Control – 100%) ([1]; compound 5 μM): 94.7 ± 8.5%
Percentage 45Ca2+ of Control (Control – 100%) ([1]; compound 10 μM): 93.4 ± 6.9%
Percentage 45Ca2+ of Control (Control – 100%) ([1]; compound 50 μM): 96.9 ± 6.0%
Percentage 45Ca2+ of Control (Control – 100%) ([1]; compound 100 μM): 87.1 ± 11.5%
inhibition of glutamate-induced calcium ion uptake ([1]; concentration of 1 μM): ~17%
effect on glutamate-induced calcium ion uptake, in words ([1]; concentration of 0.1–1 μM): can act as an inhibitor
effect on glutamate-induced calcium ion uptake, in words ([1]; concentration of 5–100 μM): had no effect
overall inhibiting activity on calcium ion uptake, in words [1]: weak inhibitors of calcium ion uptake
mole fraction solubility (x) ([2]; 1-octanol, 293.15 K): 2.51 x · 10^4
A, parameter of the correlation equation lnx=A-B/T ([2]; 1-octanol, 293.15–313.15 K): 3.65 ± 0.15
B, parameter of the correlation equation lnx=A-B/T ([2]; 1-octanol, 293.15–313.15 K): 3501 ± 46
mole fraction solubility (x) ([2]; 1-octanol, 298.15 K): 3.01 x · 10^4
ΔGsol0, standard molar dissolution Gibbs energy ([2]; 1-octanol, 298.15 K): 4.8 kcal/mol
ΔHsol0, standard molar dissolution enthalpy ([2]; 1-octanol, 298.15 K): 6.96 kcal/mol
ΔSsol0, standard molar dissolution entropy ([2]; 1-octanol, 298.15 K): 30.2 J/mol⋅K
mole fraction solubility (x) ([2]; 1-octanol, 303.15 K): 3.68 x · 10^4
mole fraction solubility (x) ([2]; 1-octanol, 308.15 K): 4.39 x · 10^4
mole fraction solubility (x) ([2]; 1-octanol, 313.15 K): 5.30 x · 10^4
mole fraction solubility (x) ([2]; Buffer pH 7.4, 293.15 K): 8.34 x · 10^6
A, parameter of the correlation equation lnx=A-B/T ([2]; Buffer pH 7.4, 293.15–313.15 K): −2.96 ± 0.09
B, parameter of the correlation equation lnx=A-B/T ([2]; Buffer pH 7.4, 293.15–313.15 K): 2558 ± 27
mole fraction solubility (x) ([2]; Buffer pH 7.4, 298.15 K): 9.60 x · 10^6
ΔGsol0, standard molar dissolution Gibbs energy ([2]; Buffer pH 7.4, 298.15 K): 6.84 kcal/mol
ΔHsol0, standard molar dissolution enthalpy ([2]; Buffer pH 7.4, 298.15 K): 5.09 kcal/mol
ΔSsol0, standard molar dissolution entropy ([2]; Buffer pH 7.4, 298.15 K): -24.6 J/mol⋅K
mole fraction solubility (x) ([2]; Buffer pH 7.4, 303.15 K): 11.11 x · 10^6
mole fraction solubility (x) ([2]; Buffer pH 7.4, 308.15 K): 12.66 x · 10^6
mole fraction solubility (x) ([2]; Buffer pH 7.4, 313.15 K): 14.60 x · 10^6
mole fraction solubility (x) ([2]; Hexane, 293.15 K): 3.85 x · 10^4
A, parameter of the correlation equation lnx=A-B/T ([2]; Hexane, 293.15–313.15 K): 1.09 ± 0.1
B, parameter of the correlation equation lnx=A-B/T ([2]; Hexane, 293.15–313.15 K): 2624 ± 30
mole fraction solubility (x) ([2]; Hexane, 298.15 K): 4.47 x · 10^4
ΔGsol0, standard molar dissolution Gibbs energy ([2]; Hexane, 298.15 K): 4.57 kcal/mol
ΔHsol0, standard molar dissolution enthalpy ([2]; Hexane, 298.15 K): 5.21 kcal/mol
ΔSsol0, standard molar dissolution entropy ([2]; Hexane, 298.15 K): 9.1 J/mol⋅K
mole fraction solubility (x) ([2]; Hexane, 303.15 K): 5.11 x · 10^4
mole fraction solubility (x) ([2]; Hexane, 308.15 K): 5.96 x · 10^4
mole fraction solubility (x) ([2]; Hexane, 313.15 K): 6.81 x · 10^4

Cc1ccc2c(c1)c1c(n2CCc2ccc(C)nc2)CCN(C)C1 [Dimebon, reference compound]
Percentage 45Ca2+ of Control (Control – 100%) ([1]; compound 0.1 μM): 120.5 ± 3.3%
Percentage 45Ca2+ of Control (Control – 100%) ([1]; compound 0.5 μM): 64.4 ± 12.4%
Percentage 45Ca2+ of Control (Control – 100%) ([1]; compound 1 μM): 61.3 ± 8.1%
Percentage 45Ca2+ of Control (Control – 100%) ([1]; compound 5 μM): 83.2 ± 4.1%
Percentage 45Ca2+ of Control (Control – 100%) ([1]; compound 10 μM): 89.3 ± 1.2%
Percentage 45Ca2+ of Control (Control – 100%) ([1]; compound 50 μM): 98.7 ± 8.8%
Percentage 45Ca2+ of Control (Control – 100%) ([1]; compound 100 μM): 132.0 ± 2.9%

Reference: paper PMC6128713 (Saudi Pharmaceutical Journal : SPJ, 2018)
